Data taken from the NIST ThermoML archive (doi:10.1021/je9005823).

Columns and labels:
[1] = 298.15 K, 101 kPa, Liquid; for viscosity: Capillary tube (Ostwald / Ubbelohde) method
[2] = refractive index (Na D-line) (dimensionless); settings: 298.15 K; 101.33 kPa; Liquid
[3] = xn = mol fraction of the nth substance listed; settings: 298.15 K, 101 kPa, Liquid; for viscosity: Capillary tube (Ostwald / Ubbelohde) method
[4] = refractive index (Na D-line) (dimensionless); xn = mol fraction of the nth substance listed; settings: 298.15 K, 101 kPa, Liquid

CCCCCC(C)O (configuration not stated) [2-heptanol]
Settings	mass density [kg/m3]	refractive index	viscosity [mPa·s]
[1]	813.33	–	5.33
[2]	–	1.4188	–

CCCCCC(C)O (configuration not stated) [2-heptanol] + CC(=O)c1ccccc1
Settings	mass density, [3] [kg/m3]	refractive index, [4]	viscosity, [3] [mPa·s]
x2 = 0	813.33	1.4188	5.33
x2 = 0.0913	829.12	1.4489	4.282
x2 = 0.1631	841.87	1.4748	3.572
x2 = 0.2637	860.39	1.5079	2.763
x2 = 0.3425	875.43	1.5298	2.296
x2 = 0.4374	894.2	1.5535	1.908
x2 = 0.5387	915.07	–	1.662
x2 = 0.6446	937.92	–	1.55
x2 = 0.7571	963.35	–	1.548
x2 = 0.8733	991.14	–	1.606
x2 = 0.9542	1011.38	1.5486	1.651

CCCCC(C)O (configuration not stated) [2-hexanol]
Settings	mass density [kg/m3]	refractive index	viscosity [mPa·s]
[1]	810.14	–	4.1
[2]	–	1.4116	–

CCCCC(C)O (configuration not stated) [2-hexanol] + CC(=O)c1ccccc1
Settings	mass density, [3] [kg/m3]	refractive index, [4]	viscosity, [3] [mPa·s]
x2 = 0	810.14	1.4116	4.1
x2 = 0.0902	827.84	1.4485	3.193
x2 = 0.1678	843.27	1.4782	2.658
x2 = 0.2536	860.63	1.5037	2.16
x2 = 0.34	878.39	1.5247	1.802
x2 = 0.4382	898.86	1.5425	1.506
x2 = 0.5395	920.38	–	1.344
x2 = 0.6451	943.23	–	1.273
x2 = 0.75	966.34	–	1.313
x2 = 0.8628	991.72	1.5505	1.399
x2 = 0.9511	1011.93	1.5394	1.556

CC(=O)c1ccccc1 [acetophenone]
Settings	mass density [kg/m3]	refractive index	viscosity [mPa·s]
[1]	1023.3	–	1.678
[2]	–	1.5308	–

CC(=O)c1ccccc1 [acetophenone] + CC(C)O
Settings	mass density, [3] [kg/m3]	refractive index, [4]	viscosity, [3] [mPa·s]
x1 = 0.0892	813.69	1.3971	1.678
x1 = 0.1658	839.2	1.4181	1.503
x1 = 0.2517	865.44	1.4393	1.399
x1 = 0.3432	890.91	1.4601	1.354
x1 = 0.4297	913.04	1.4775	1.352
x1 = 0.5345	937.56	1.4953	1.367
x1 = 0.6466	961.31	1.5099	1.421
x1 = 0.7561	982.35	1.5195	1.484
x1 = 0.8635	1001.26	1.5255	1.556
x1 = 0.9568	1016.5	1.5276	1.626
x1 = 1	1023.3	1.5308	1.678

CC(=O)c1ccccc1 [acetophenone] + CCC(C)O
Settings	mass density, [3] [kg/m3]	refractive index, [4]	viscosity, [3] [mPa·s]
x1 = 0.1031	830.43	1.4255	2.345
x1 = 0.1635	846.12	1.4443	2.009
x1 = 0.2517	868.13	1.4669	1.705
x1 = 0.3422	889.8	1.4877	1.544
x1 = 0.4361	911.31	1.5044	1.461
x1 = 0.533	932.56	1.5189	1.46
x1 = 0.6461	956.27	1.5314	1.506
x1 = 0.7517	977.34	1.5367	1.562
x1 = 0.8675	999.34	1.5351	1.617
x1 = 0.9462	1013.72	1.5336	1.65
x1 = 1	1023.3	1.5308	1.678

CC(=O)c1ccccc1 [acetophenone] + CCCC(C)O
Settings	mass density, [3] [kg/m3]	refractive index, [4]	viscosity, [3] [mPa·s]
x1 = 0.0917	826.19	1.4627	2.767
x1 = 0.1629	842.36	1.4972	2.314
x1 = 0.2502	862.04	1.5257	1.875
x1 = 0.3416	882.41	1.5487	1.626
x1 = 0.4371	903.49	–	1.502
x1 = 0.5387	925.71	–	1.489
x1 = 0.6442	948.51	–	1.534
x1 = 0.7547	972.08	–	1.605
x1 = 0.8716	996.7	1.547	1.658
x1 = 0.949	1012.77	1.539	1.669
x1 = 1	1023.3	1.5308	1.678

CC(=O)c1ccccc1 [acetophenone] + CCCCC(C)O
x1 = 1
Settings	mass density [kg/m3]	refractive index	viscosity [mPa·s]
[3]	1023.3	–	1.678
[4]	–	1.5308	–

CC(=O)c1ccccc1 [acetophenone] + CCCCCC(C)O
x1 = 1
Settings	mass density [kg/m3]	refractive index	viscosity [mPa·s]
[3]	1023.3	–	1.678
[4]	–	1.5308	–

CCC(C)O (configuration not stated) [butan-2-ol]
Settings	mass density [kg/m3]	refractive index	viscosity [mPa·s]
[1]	802.56	–	3.132
[2]	–	1.3946	–

CCC(C)O (configuration not stated) [butan-2-ol] + CC(=O)c1ccccc1
x2 = 0
Settings	mass density [kg/m3]	refractive index	viscosity [mPa·s]
[3]	802.56	–	3.132
[4]	–	1.3946	–

CCCC(C)O (configuration not stated) [pentan-2-ol]
Settings	mass density [kg/m3]	refractive index	viscosity [mPa·s]
[1]	805.24	–	3.478
[2]	–	1.4045	–

CCCC(C)O (configuration not stated) [pentan-2-ol] + CC(=O)c1ccccc1
x2 = 0
Settings	mass density [kg/m3]	refractive index	viscosity [mPa·s]
[3]	805.24	–	3.478
[4]	–	1.4045	–

CC(C)O [propan-2-ol]
Settings	mass density [kg/m3]	refractive index	viscosity [mPa·s]
[1]	780.98	–	2.044
[2]	–	1.3745	–

CC(C)O [propan-2-ol] + CC(=O)c1ccccc1
x2 = 0
Settings	mass density [kg/m3]	refractive index	viscosity [mPa·s]
[3]	780.98	–	2.044
[4]	–	1.3745	–
